Values joined by “and” are separate entries in the source; they are usually repeats but may differ in a detail not shown here. Identical values can stand only once. Active and inactive are the calls of the source.
Columns and labels:
Protein skinhead-1 = biological target: T1, Protein skinhead-1 (Caenorhabditis elegans, UniProt P34707); type: functional
T1 sequence (P34707 whole entry): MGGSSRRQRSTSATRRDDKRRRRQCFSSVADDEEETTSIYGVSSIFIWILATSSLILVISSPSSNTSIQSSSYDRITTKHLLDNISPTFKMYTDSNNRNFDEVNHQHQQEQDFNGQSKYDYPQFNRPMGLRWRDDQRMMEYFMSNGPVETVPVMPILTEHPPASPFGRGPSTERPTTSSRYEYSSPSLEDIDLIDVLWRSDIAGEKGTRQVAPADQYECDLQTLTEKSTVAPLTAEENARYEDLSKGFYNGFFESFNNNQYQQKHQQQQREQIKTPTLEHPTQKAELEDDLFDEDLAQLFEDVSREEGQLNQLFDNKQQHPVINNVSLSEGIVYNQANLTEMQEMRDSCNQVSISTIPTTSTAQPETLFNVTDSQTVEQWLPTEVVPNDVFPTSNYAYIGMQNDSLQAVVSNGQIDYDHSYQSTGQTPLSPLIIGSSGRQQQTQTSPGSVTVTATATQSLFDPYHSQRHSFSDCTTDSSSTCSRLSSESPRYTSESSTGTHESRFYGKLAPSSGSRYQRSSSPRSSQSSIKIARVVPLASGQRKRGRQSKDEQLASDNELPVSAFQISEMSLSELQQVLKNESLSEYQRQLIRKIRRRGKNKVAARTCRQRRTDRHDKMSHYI

[1] = biological target: NAD-dependent protein deacylase sirtuin-5, mitochondrial (Homo sapiens, UniProt Q9NXA8); experiment: SIRT5 desuccinylase inhibitors, dose response, biochemical, fluorescence imaging, cherry-pick, set 5 (AID 720591);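 further: desuccinylation of succinyl peptide AMC substrate read as fluorescence after trypsin release; potency of inhibitors that lower fluorescence and may act on trypsin instead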
[2] = biological target: E3 ubiquitin-protein ligase UHRF1 (Homo sapiens, UniProt Q96T88); experiment: Counterscreen for inhibitors of 5-meCpG-binding domain protein 2 (MBD2): TRFRET-based biochemical high throughput dose response assay to identify inhibitors of binding of ubiquitin-like with PHD and ring finger domains 1 (UHRF1) to methylated oligonucleotide.
[3] = CTGF mRNA reduction under YAP1 overexpression, dose response, mechanism study for YAP1 pathway inhibitor project, DLD1 cells, RT-qPCR, cherry-pick (AID 1053127); type: functional, cell-based; conditions: DLD-1
[4] = biological target: G-protein coupled receptor 183 (Homo sapiens, UniProt P32249); experiment: SAR confirmation of small molecule antagonists of the EBI2 receptor via a luminescent beta-arrestin assa.; type: functional
[5] = luciferase signal loss, tTA control fusion, HeLa F-luc tTA cells, dry powder, counter-screen for HIV Env fusion inhibitor project, dose response (AID 687021); type: functional, cell-based
[6] = CEM21 cell cytotoxicity, dose response, cytotoxicity control, plate reader, dry powder (AID 687026); type: functional, cell-based
[7] = HIV Env cell-cell fusion inhibitors, dose response, HIV entry, plate reader, dry powder (AID 687023); type: functional, cell-based
cells = conditions: HEK293
[8] = Luminescence-based cell-based high throughput dose response assay to identify activators of the DAF-12 from the parasite S. stercoralis (ssDAF-12).; type: functional
[9] = biological target: Oxysterols receptor LXR-beta (Homo sapiens, UniProt P55055); experiment: LXR agonists, Gal4 luciferase reporter, dose response, counter-screen for ssDAF-12 agonist project, cell-based, luminescence, HEK293, S. stercoralis campaign (AID 720737); type: functional; conditions: read-out: IC50 (the source's name)
Kallikrein-7 = Kallikrein-7 (Homo sapiens, UniProt P49862); experiment: Fluorescence Intensity-based biochemical primary high throughput dose response assay to identify activators of kallikrein-7 (K7) zymogen.
[10] = cytotoxicity in OVCAR8 ovarian cancer cells, dose response, PAX8 project, cell-based, plate reader, dry powder samples (AID 743197); type: functional; conditions: OVCAR-8
[11] = A2780 ovarian cancer cell cytotoxicity, dose response, cytotoxicity control, plate reader, dry powder samples (AID 743046); type: functional, cell-based
[12] = HepG2 cell cytotoxicity, dose response, cytotoxicity control, plate reader, dry powder samples (AID 1159569); type: functional, cell-based;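 further: inhibitor potency with signal falling toward the positive control level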
[13] = P. falciparum 3D7-ScDHODH growth inhibitors, dose response, SYBR Green, dry powder samples (AID 1159570); type: functional, cell-based;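 further: parasite growth measured after 72 hours of compound exposure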
[14] = non-specific cell cytotoxicity, dose response, cytotoxicity control for PAX8 inhibitor project, plate reader, dry powder samples (AID 743021); type: functional, cell-based
[15] = NIH:OVCAR-3 ovarian cancer cell cytotoxicity, dose response, PAX8 inhibitor project, plate reader, dry powder samples (AID 743044); type: functional, cell-based
[16] = P. falciparum Dd2 growth inhibitors, dose response, SYBR Green, cherry-picked samples (AID 1159567); type: functional, cell-based
[17] = IGROV1 ovarian cancer cell cytotoxicity, dose response, PAX8 inhibitor project, plate reader, dry powder samples (AID 743043); type: functional, cell-based; conditions: IGROV-1
Paired box protein Pax-8 = Paired box protein Pax-8 (Homo sapiens, UniProt Q06710); experiment: inhibitors of PAX8-driven TPO luciferase reporter, dose response, RMG-I cells, cherry-pick (AID 687027); type: functional, cell-based;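 further: luciferase reporter driven by Pax8 target thyroperoxidase promoter measured by SteadyGlo luminescence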
[18] = P. falciparum Dd2 growth inhibitors, dose response, SYBR Green, dry powder samples (AID 1159566); type: functional, cell-based;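 further: potency for growth inhibition with lower SYBR green DNA signal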
[19] = P. falciparum ATP4 D1247Y mutant growth inhibitors, dose response, NITD609-resistant line, SYBR Green, dry powder (AID 1159571); type: functional, cell-based;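 further: parasites synchronized at ring stage by sorbitol before testing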
[20] = IOSE-T80 ovarian epithelial cell cytotoxicity, dose response, cytotoxicity control for PAX8 inhibitor project, plate reader, dry powder samples (AID 743045); type: functional, cell-based
[21] = cytotoxicity in HeLa cells, dose response, cytotoxicity control, cell-based, plate reader, dry powder (AID 651946); type: functional
[22] = inhibitors of non-replicating M. tuberculosis, dose response, luciferase, dry powder (AID 651619); type: functional; conditions: Mycobacterium tuberculosis
[23] = inhibitors of non-replicating M. tuberculosis, dose response, luciferase, dry powder (AID 651620); type: functional; conditions: Mycobacterium tuberculosis
[24] = inhibitors of PGC1a acetylation in cells, dose response, cell-based, cherry-picked samples (AID 720514); type: functional;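 further: potency may reflect raised or lowered acetylation signal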
[25] = biological target: Glutathione-S-transferase (Schistosoma japonicum, UniProt Q26513); experiment: biotin-GST/anti-GST TR-FRET signal inhibitors, dose response, artefact control for Vif-APOBEC3G degradation inhibitor project, biochemical (AID 1117362); type: functional
Phospholipase D2 = Phospholipase D2 (Homo sapiens, UniProt O14939); experiment: PLD2 Cellular Concentration Response Study.; type: functional
Phospholipase D1 = biological target: T2, Phospholipase D1 (Homo sapiens, UniProt Q13393); experiment: PLD1 Cellular Concentration Response Study.; type: functional
T2 sequence (Q13393 whole entry): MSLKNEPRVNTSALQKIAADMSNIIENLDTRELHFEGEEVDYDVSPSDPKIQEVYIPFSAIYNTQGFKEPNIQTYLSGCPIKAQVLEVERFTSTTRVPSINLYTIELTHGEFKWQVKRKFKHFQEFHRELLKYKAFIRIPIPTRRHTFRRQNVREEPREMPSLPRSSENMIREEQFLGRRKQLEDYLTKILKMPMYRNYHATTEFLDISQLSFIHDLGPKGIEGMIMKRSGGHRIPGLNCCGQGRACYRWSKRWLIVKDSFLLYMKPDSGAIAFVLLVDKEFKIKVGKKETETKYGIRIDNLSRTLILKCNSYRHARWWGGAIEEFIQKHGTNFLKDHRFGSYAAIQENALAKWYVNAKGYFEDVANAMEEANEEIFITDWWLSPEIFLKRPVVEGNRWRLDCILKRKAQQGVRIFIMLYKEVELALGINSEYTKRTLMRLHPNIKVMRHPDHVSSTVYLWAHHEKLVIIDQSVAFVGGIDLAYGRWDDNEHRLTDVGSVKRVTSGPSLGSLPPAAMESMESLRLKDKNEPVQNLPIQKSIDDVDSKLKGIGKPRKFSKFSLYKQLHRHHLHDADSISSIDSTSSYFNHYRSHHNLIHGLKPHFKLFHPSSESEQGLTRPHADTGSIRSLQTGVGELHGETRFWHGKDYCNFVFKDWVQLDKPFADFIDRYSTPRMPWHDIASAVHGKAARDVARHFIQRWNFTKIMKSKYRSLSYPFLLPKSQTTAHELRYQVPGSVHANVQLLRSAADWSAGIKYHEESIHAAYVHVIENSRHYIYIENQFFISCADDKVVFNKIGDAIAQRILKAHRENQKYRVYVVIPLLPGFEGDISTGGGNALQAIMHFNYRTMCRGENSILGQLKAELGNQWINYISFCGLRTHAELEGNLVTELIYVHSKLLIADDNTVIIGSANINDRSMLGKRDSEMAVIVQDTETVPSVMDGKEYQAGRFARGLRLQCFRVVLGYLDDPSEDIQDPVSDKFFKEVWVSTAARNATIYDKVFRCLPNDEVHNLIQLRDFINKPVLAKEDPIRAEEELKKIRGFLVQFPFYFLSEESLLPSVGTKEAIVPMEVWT

[26] = biological target: 26S proteasome non-ATPase regulatory subunit 14 (Homo sapiens, UniProt O00487); experiment: inhibition of proteasome subunit RPN11 – biochemical, fluorescence polarization, uHTS hits, confirmation (AID 602368); type: functional
Caspase-6 = Caspase-6 (Homo sapiens, UniProt P55212); experiment: human caspase-6 inhibitors, dose response, biochemical, VEID-R110 fluorescence, cherry-pick (AID 720632)
Prothrombin = Prothrombin (Bos taurus, UniProt P00735); experiment: thrombin inhibition, dose response, biochemical, fluorescence polarization, uHTS hits (AID 602369); type: functional
[27] = biological target: 72 kDa type IV collagenase (Homo sapiens, UniProt P08253); experiment: Dose Response validation of uHTS RPN11 inhibitor hits using a MMP-2 Fluorescence assay.; type: functional
[28] = Concentration-dependent survival of SW480 colon cancer line, luminescence detection with CellTiter-Glo, half-maximal inhibitory concentration (AID 1117338); type: functional
[29] = RKO cell viability reduction, dose response, CellTiter-Glo luminescence (AID 1117322); type: functional
[30] = SNU-C1 cell viability reduction, dose response, CellTiter-Glo luminescence (AID 1117323); type: functional, cell-based
[31] = HeLa 2N DNA content increase, dose response, cell-based, IC50 (AID 1117349); type: functional
[32] = CellTiter-Glo luminescent dose response of DLD-1 viability loss (AID 1117352); type: functional
[33] = cytotoxicity toward HCT116 cells – cell-based, CellTiter-Glo luminescence, IC50, dose response (AID 1117332); type: functional; conditions: HCT-116
[34] = HeLa 4N DNA content increase, dose response, cell-based, IC50 (AID 1117351); type: functional
[35] = HCT116 cell viability decrease, GSK3B pretreatment – CellTiter-Glo, IC50, dose response (AID 1117339); type: functional; conditions: HCT-116
[36] = cytotoxicity toward Colo320 cells – cell-based, CellTiter-Glo luminescence, IC50, dose response (AID 1117334); type: functional; conditions: COLO 320

Chain of Glutathione-S-transferase (Q26513 whole entry): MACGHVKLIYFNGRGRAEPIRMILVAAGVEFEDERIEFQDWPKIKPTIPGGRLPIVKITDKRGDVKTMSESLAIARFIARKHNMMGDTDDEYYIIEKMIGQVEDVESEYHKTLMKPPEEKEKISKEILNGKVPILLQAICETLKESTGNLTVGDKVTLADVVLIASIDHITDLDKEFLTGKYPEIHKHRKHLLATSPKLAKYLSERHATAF
Chain of E3 ubiquitin-protein ligase UHRF1 (Q96T88 whole entry, the tested form may be a part): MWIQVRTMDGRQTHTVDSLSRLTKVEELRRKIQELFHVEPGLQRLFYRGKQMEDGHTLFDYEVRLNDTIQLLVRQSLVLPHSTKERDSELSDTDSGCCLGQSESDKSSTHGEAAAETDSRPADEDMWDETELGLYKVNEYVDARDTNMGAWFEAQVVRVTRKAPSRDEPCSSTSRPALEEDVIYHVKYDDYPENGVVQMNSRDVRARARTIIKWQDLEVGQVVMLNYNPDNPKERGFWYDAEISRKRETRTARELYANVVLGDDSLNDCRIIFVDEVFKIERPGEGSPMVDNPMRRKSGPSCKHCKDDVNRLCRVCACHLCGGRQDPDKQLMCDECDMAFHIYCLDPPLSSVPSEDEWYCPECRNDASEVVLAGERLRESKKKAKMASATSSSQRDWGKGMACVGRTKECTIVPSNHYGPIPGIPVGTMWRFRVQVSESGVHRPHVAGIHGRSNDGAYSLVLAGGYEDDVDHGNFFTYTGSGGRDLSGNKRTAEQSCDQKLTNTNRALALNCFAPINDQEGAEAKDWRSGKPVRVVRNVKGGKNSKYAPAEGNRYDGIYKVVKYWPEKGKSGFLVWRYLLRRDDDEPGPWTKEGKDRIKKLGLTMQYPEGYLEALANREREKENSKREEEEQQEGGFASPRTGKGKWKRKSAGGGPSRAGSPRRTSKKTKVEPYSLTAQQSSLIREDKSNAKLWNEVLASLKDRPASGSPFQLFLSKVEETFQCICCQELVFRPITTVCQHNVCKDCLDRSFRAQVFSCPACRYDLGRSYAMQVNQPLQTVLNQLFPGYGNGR
Chain of G-protein coupled receptor 183 (P32249 whole entry, the tested form may be a part): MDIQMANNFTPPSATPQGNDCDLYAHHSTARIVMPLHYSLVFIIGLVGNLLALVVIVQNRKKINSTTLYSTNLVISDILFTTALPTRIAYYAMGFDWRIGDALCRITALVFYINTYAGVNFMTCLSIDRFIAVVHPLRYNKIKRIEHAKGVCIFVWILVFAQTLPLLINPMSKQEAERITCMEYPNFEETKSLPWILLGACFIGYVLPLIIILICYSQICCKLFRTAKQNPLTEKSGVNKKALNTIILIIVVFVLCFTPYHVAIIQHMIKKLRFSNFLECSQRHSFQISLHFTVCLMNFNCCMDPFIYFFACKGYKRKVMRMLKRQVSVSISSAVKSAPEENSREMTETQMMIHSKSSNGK
Chain of 26S proteasome non-ATPase regulatory subunit 14 (O00487 whole entry): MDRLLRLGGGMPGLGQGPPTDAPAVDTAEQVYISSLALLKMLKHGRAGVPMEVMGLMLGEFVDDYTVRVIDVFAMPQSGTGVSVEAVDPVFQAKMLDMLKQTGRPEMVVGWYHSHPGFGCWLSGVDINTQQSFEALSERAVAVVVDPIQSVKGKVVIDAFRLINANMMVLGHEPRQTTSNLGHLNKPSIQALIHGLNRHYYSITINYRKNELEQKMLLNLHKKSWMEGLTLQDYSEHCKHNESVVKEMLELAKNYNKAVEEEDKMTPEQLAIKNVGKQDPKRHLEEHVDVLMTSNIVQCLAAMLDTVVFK
Chain of Kallikrein-7 (P49862 whole entry): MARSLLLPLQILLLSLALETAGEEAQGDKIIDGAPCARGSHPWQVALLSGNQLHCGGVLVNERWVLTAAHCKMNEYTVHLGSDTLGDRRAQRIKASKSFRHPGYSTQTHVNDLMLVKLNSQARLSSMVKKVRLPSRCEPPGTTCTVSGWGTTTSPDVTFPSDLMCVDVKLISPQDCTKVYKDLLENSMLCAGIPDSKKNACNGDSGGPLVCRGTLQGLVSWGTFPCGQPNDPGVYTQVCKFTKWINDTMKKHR
Chain of Caspase-6 (P55212 24-179 limits assumed): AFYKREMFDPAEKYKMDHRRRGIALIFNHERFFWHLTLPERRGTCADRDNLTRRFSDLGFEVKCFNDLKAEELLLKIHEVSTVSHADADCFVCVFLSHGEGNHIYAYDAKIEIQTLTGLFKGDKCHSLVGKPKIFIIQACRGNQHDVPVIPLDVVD
Chain of Caspase-6 (P55212 194-293 limits assumed): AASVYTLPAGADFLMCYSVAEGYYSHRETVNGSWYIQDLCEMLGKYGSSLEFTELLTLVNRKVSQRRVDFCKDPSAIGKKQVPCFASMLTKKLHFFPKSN
Chain of 72 kDa type IV collagenase (P08253 whole entry): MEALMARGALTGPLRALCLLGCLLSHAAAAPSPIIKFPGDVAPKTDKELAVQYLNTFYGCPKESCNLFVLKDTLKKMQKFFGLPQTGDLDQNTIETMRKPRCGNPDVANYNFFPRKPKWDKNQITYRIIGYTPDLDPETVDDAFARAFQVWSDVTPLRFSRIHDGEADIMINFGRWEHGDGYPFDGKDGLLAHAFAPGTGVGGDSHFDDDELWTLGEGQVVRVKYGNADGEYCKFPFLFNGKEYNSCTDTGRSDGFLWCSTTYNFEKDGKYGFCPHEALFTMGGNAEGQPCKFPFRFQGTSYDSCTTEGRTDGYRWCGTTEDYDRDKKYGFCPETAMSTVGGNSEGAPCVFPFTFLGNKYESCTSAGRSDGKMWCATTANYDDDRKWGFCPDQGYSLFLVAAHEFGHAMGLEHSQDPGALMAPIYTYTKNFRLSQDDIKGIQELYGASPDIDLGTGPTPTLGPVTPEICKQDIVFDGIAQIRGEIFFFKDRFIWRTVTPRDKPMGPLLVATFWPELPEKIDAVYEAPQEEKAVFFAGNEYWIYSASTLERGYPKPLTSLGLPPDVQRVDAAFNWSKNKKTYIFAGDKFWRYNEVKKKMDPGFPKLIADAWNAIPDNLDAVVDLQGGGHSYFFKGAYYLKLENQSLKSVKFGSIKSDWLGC
Chain of Oxysterols receptor LXR-beta (P55055 whole entry, the tested form may be a part): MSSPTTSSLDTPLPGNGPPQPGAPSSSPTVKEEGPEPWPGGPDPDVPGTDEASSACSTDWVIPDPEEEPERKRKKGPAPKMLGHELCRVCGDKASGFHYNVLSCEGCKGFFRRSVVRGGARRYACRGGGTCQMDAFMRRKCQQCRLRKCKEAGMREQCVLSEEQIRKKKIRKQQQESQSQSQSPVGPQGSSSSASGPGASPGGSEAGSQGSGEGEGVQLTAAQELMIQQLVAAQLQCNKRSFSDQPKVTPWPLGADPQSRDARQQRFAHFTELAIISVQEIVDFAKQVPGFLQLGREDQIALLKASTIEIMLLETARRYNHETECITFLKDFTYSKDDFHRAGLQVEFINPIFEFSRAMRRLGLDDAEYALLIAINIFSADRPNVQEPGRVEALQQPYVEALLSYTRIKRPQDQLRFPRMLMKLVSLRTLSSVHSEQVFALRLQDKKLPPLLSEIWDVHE
Chain of NAD-dependent protein deacylase sirtuin-5, mitochondrial (Q9NXA8 whole entry, the tested form may be a part): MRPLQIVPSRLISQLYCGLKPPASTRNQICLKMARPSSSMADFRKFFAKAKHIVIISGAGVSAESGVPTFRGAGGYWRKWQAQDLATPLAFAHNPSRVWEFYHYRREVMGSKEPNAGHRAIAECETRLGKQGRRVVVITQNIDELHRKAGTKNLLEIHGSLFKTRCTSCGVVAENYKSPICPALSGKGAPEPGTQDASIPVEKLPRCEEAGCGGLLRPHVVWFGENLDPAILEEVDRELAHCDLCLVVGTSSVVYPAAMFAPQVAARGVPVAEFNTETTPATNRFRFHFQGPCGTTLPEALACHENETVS
Chain of Phospholipase D2 (O14939 whole entry): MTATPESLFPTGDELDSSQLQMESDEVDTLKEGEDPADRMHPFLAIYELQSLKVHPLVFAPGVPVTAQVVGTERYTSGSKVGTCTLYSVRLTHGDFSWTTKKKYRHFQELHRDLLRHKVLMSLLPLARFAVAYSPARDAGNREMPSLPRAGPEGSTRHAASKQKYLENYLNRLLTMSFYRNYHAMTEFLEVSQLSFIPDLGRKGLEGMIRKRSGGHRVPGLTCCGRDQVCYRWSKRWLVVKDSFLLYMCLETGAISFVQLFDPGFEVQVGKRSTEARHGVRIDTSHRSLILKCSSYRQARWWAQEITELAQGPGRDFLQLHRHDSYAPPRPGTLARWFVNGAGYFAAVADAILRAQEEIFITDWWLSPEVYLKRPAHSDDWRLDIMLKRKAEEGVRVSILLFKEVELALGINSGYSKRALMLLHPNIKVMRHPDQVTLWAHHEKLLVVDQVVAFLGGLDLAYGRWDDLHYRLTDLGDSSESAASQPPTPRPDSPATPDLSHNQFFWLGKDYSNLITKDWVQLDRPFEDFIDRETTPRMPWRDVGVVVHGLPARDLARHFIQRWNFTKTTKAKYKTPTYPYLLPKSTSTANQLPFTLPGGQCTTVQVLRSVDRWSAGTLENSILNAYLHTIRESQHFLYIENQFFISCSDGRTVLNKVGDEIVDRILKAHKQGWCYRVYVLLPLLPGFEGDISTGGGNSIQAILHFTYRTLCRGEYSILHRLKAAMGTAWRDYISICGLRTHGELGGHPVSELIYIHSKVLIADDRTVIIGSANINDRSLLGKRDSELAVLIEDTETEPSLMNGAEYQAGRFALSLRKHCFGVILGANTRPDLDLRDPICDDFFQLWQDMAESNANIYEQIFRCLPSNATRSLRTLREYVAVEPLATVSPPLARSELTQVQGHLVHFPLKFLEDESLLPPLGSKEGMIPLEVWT

## Fc1ccc(-c2nc3ccc(Cl)cn3c2Cc2ccsc2)cc1
Protein skinhead-1
  IC50: 70.3 µM (inactive)
[1]
  AC50: 25.8 µM (active)

## CC(=O)Nc1sc2c(c1-c1nc3ccccc3s1)CCCNC2
[2]
  IC50: 15.3 µM (inactive)

## O=C(Nc1ccc(C(F)(F)F)cc1)Nc1ccc2c(c1)[C@H]1C[C@H](CC(=O)N3CCc4ccccc4C3)O[C@@H](CO)[C@H]1O2
[3]
  AC50: > 26 µM (inactive)

## O=C(/C=C/c1ccc(F)cc1)N1CCN(S(=O)(=O)c2ccc(F)cc2)CC1
[4]
  IC50: 18.5 nM (active)

## CCOc1ccc(C)cc1S(=O)(=O)NCc1ccncc1
[5]
  AC50: > 70 µM (inactive)
[6]
  AC50: > 70 µM (inactive)
[7]
  AC50: 4.69 µM (active) and 8.19 µM (active)

## COc1ccccc1OCCn1c(SC)nc2ccccc21
cells
  AC50: 29.1 µM (active)

## CCc1ccc(-c2csc3ncn(CC)c(=O)c23)cc1
[8]
  IC50: > 67.6 µM (inactive)
[9]
  EC50: > 67.6 µM (inactive)

## COc1cccc(CNC(=O)c2ccc3c(c2)N(C)CCS3)c1OC
Kallikrein-7
  EC50: > 69.5 µM (inactive)

## C[C@H]1CN([C@@H](C)CO)C(=O)c2c(c3ccccc3n2C)-c2ccccc2CO[C@H]1CN(C)S(=O)(=O)c1ccc([N+](=O)[O-])cc1
[10]
  AC50: 10.2 µM (active)
[11]
  AC50: 12.7 µM (active)
[12]
  AC50: 66.4 µM (active)
[13]
  AC50: 298 nM (active)
[14]
  AC50: 48.5 µM (active)
[15]
  AC50: 10.1 µM (active)
[16]
  AC50: 629 nM (active)
[17]
  AC50: 12.2 µM (active)
Paired box protein Pax-8
  AC50: 2.72 µM (active)
[18]
  AC50: 234 nM (active)
[19]
  AC50: 237 nM (active)
[20]
  AC50: 22.3 µM (active)

## Clc1ccc(-c2nnc(SCc3cn(-c4ccccc4)nn3)o2)cc1
[21]
  AC50: > 52 µM (inactive)
[22]
  IC90: 1 µM (active)
[23]
  IC90: 1 µM (active)

## CC(C)CC#Cc1ccc2c(c1)O[C@@H](CN(C)Cc1ccc3c(c1)OCO3)[C@H](C)CN([C@H](C)CO)S2(=O)=O
[24]
  AC50: 12.6 µM (active)

## CC[n+]1ccc(C)c2cc(P(=O)(c3ccccc3)c3ccccc3)ccc21
[25]
  IC50: 9.73 µM (active)

## O=C(NCCN1CCC2(CC1)C(=O)NCN2C(=O)C1CC1)c1ccc2ccccc2c1
Phospholipase D2
  IC50: 440 nM (active)
Phospholipase D1
  IC50: 3.1 µM (active)

## CN(CC(=O)Nc1ccc(F)c(F)c1F)C(=O)CCc1nc(O)c2c3c(sc2n1)CCCC3
[26]
  IC50: 46.5 µM (active)
Caspase-6
  AC50: 18.6 µM (active)
Prothrombin
  IC50: 61.3 µM (active)
[27]
  IC50: > 100 µM (inactive)

## O=C1C(I)=CC(=C(c2cc(I)c(O)c(I)c2)c2ccccc2C(=O)O)C=C1I [IODOPHTHALEIN SODIUM]
[28]
  IC50: 112 nM (active)
[29]
  IC50: 37.3 nM (active)
[30]
  IC50: 3.76 µM (active)
[31]
  IC50: > 10 µM (inactive)
[32]
  IC50: 13.2 nM (active)
[33]
  IC50: 384 nM (active)
[34]
  IC50: > 10 µM (inactive)
[35]
  IC50: 54 nM (active)
[36]
  IC50: 312 nM (active)

From ChEMBL document CHEMBL1201862, “PubChem BioAssay data set” (2004)
